Results taken from patent publication US20020164581A1 (priority 2001, published 2002).

Key:
[1] = test system: bovine aortic endothelial cells (bAECs)
Protocol: Primary cultures of bAECs were established from five female beef cattle (ranging in age from 1 to 2 years old) according to the method of Fenselau and Mello (Cancer Res. 36:3269-3273, 1976). Pooled cells were routinely maintained under humidified air (5% CO2) at 37° C. in Dulbecco's modified medium supplemented with 10% fetal bovine serum (FBS). Cells from the second to the fifth passages were used in these studies.
In the studies in which male and female bAECs were compared, batches of bAECs were independently established from 5 female and 4 male beef cattle (ranging in age from 1 to 2 years old) according to the method of Fenselau and Mello (Cancer Res. 36:3269-3273, 1976). Otherwise, the cells were treated and assessed as described in the paragraph above.
(§1) Prior to E2 pretreatment, cells were grown in phenol red-free DMEM supplemented with 10% dextran/charcoal-stripped FBS for at least 1 passage (3-4 days). Phenol red-free Dulbecco's modified medium was used to avoid potential estrogenic interference. Serum steroid deprivation was conducted according to the conditions described by Yeh et al. (Proc. Natl. Acad. Sci. USA 95:5527-5532, 1998). The E2 level in the stripped serum was assayed using an [^125I] 17β-estradiol radioimmunoassay kit (TKE21, Diagnostic Products Corporation, Los Angeles, Calif.). […] The cells grown in E2-free environments were plated onto Falcon 24-well Primariae™ plates at a density of 5×10^4 cells/well. E2 in dimethylsulfoxide (DMSO) was added to each well at final concentrations ranging from 1 nM to 10 μM 3 hours after plating, and the cells were then incubated for 24 hours (a duration commonly used for the studies of the genomic effects of E2) at 37° C. Control cells were treated with a corresponding amount of DMSO (a final concentration 0.05%).
Prior to oxidative challenge, E2-containing media was removed, and the cells were rinsed with PBS twice and re-fed with serum-free fresh medium. Subsequently, paraquat was added to the cells at the indicated doses (0.1-2.0 mM) for 3 hours. The oxidative challenge was terminated by aspiration of the oxidant-containing medium and quickly rinsing the cells twice with PBS. The cells were allowed to recover for 48 hours in medium supplemented with 10% regular FBS to exclude the possibility that different concentrations of E2 interfere with the cellular recovery processes.
Cell survival after oxidative challenge was assessed with a 3-(4,5-dimethylthiazol-2-yl) 2,5 diphenyltetrazolium bromide (MTT) assay in which the mitochondrial dehydrogenase activity of viable cells reduces MTT to a blue formazan product (Carmichael et al. Cancer Res. 47:936-942, 1987). Our prior conditions were employed (Si et al., Endocrine in press, 2001). Briefly, cells were treated with 1/10 volume of MTT solution (5 mg/ml in PBS) and incubated at 37° C. for 2 hours. The supernatant was then removed, and 600 μl of lysis buffer (50% dimethyl formamide, 5% sodium dodecyl sulphate, 0.35 M acetic acid, 50 mM HCl) was added to each well. Following cell lysis, the absorbency was measured at 570 nm and used as an indicator of relative cell survival. The surviving fraction was calculated as compared to the cells without paraquat challenge.
Two experimental groups were created. In the first group, E2 was added only during the 24-hour pretreatment period. In the second group, E2 was added only during the 3-hour paraquat exposure.

[2] = test system: bovine aortic endothelial cells (bAECs); test: Lysophosphatidylcholine or homocysteine/Cu2+ challenge of E2-pretreated cells, cell survival; assay type: cell-based
Protocol: as §1, with “E2 in dimethylsulfoxide (DMSO) was added to each well at final concentrations ranging from 1 nM to 10 μM 3 hours after plating, and the cells were then incubated for 24 hours (a duration commonly used for the studies of the genomic effects of E2) at 37° C. Control cells were treated with a corresponding amount of DMSO (a final concentration 0.05%).” left out
Cell survival after oxidative challenge was assessed with a 3-(4,5-dimethylthiazol-2-yl) 2,5 diphenyltetrazolium bromide (MTT) assay in which the mitochondrial dehydrogenase activity of viable cells reduces MTT to a blue formazan product (Carmichael et al. Cancer Res. 47:936-942, 1987). […] Following cell lysis, the absorbency was measured at 570 nm and used as an indicator of relative cell survival. The surviving fraction was calculated as compared to the cells without paraquat challenge.

[3] = test system: bovine aortic endothelial cells (bAECs); remark: listed apart in the source
Protocol: as §1
To study the difference between male and female cells in their response to E2, bAECs from male and female animals were treated with various concentrations of E2 for 24 hours and then challenged with paraquat (1,1′-dimethyl-4,4′-bipyridinium dichloride, methyl viologen). Paraquat was used because it generates the superoxide anion O2 in living cells. […] Accordingly, E2 ranging in concentration from 1 nM to 10 μM was used in these studies.

catalase (CAT) = test: CAT activity in cell lysate (H2O2 degradation); assay type: cell-based, bovine
Protocol: (§2) Cells pretreated with different concentrations of E2 for 24 hours were harvested in a solution containing 50 mM Tris-HCl (pH 7.4), 1 mM EDTA, 2 μg/ml pepstatin A, 10 μg/ml benzamidine, and 10 μg/ml trypsin inhibitor. The cells were then lysed on ice by sonication at a setting of 50 mW, with 3×15 set cycles using a Cole-Parmer Ultrasonic Homogenizer (Chicago, Ill.). Protein concentrations in the samples were determined by the Bradford method with bovine serum albumin as a standard (Bradford, Anal. Biochem. 72:248-254, 1976).
CAT activity was determined by the method of Aebi (Methods Enzymol. 105:121,-126, 1984). One unit of CAT activity is defined as the amount of protein that degrades 1 μmole of H2O2 per minute. Initially, 10 μl of absolute ethanol was mixed with 100 μl of cell homogenates and pre-incubated at 4° C. for 30 minutes. Following the addition of 10 μl Triton X-100 (reduced form), a 100 μl aliquot (about 100 μg of protein) of the resultant mixture was next added to 500 μl of hydrogen peroxide (66 mM) and 400 μl of phosphate buffer (0.1 M NaH2PO4, 0.1 M Na2HPO4, 0.1 mM EDTA, pH 7.0). The absorbency of the mixture was monitored for one minute at 240 nm spectrophotometrically. The molar extinction coefficient of 43.6 M/cm was used to determine the catalase activity.

[4] = test system: glutathione peroxidase (GPX); test: GPX activity in cell lysate (NADPH oxidation); assay type: cell-based, bovine
Protocol: as §2
GPX activity was determined by a modified method of Flohe and Gunzler (Methods Enzymol. 105:114-121, 1984). One unit of GPX activity is defined as the amount of protein that oxidizes 1 nmole of β-NADPH per minute. In this assay, 100 μl of cell homogenate (about 100 μg protein) was added to 800 μl of phosphate buffer (0.1 M NaH2PO4, 0.1 M Na2HPO4, 0.1 mM EDTA, pH 7.0) containing 12.5 mM glutathione (reduced form, GSH), 0.2 mM β-nicotinamide adenine dinucleotide phosphate (reduced form, β-NADPH), and 0.34 U glutathione reductase. This mixture was pre-incubated at 37 C for 10 minutes and then 100 μl of 12 mM t-butyl hydroperoxide was added. The absorbency of the mixture was determined at 340 nm for 3 minutes. The molar extinction coefficient of 6.22 mM/cm was used to determine the activity of GPX.

[5] = 24 h pretreatment, paraquat challenge
[6] = 1 nM E2 pretreatment (Example 8)
[7] = female bAECs, 24 h 1 nM E2 (Example 12)

C[C@]12CC[C@@H]3c4ccc(O)cc4CC[C@H]3[C@@H]1CC[C@@H]2O [E2, 17β-estradiol]
E2 dosage that defended cells when present during oxidative challenge [1]: 10 µM
oxidant protection with E2 present during paraquat exposure [1]: mild but notable oxidant protection
oxidative protection after brief preincubation [1]: not effective in providing oxidative protection
oxidative resistance (MTT survival) [1]: marked augmentation of oxidative resistance
protection against subsequent oxidative challenge [1]: acquired significant protection against subsequent oxidative challenge
resistance to paraquat toxicity (cell survival) [1]: enhanced resistance to the toxic effect of paraquat
E2 concentration of optimal protection [1, 5]: 1 to 10 nM
E2 dosage at which protection gradually declined in magnitude [1, 5]: about 1 μM
protection after brief estrogenic exposure ([1]; E2 30 minutes only, washed, male or female endothelial cells): No protection by E2
LD50 of paraquat toxicity in E2-pretreated cells ([1]; cells pretreated with 1 nM E2 for 24 h): about 1 mM
magnitude of protection at elevated E2 ([1]; female bAECs, E2 0.1-10 μM, P<0.05 vs. 1 nM): gradually decreased
protection against paraquat challenge ([1]; male bAECs, E2 pretreatment at any tested concentration): no protection was seen
survival after homocysteine/Cu2+ challenge ([2]; homocysteine/Cu2+ 1 mM/25 μM, 3 hours): gained survival benefit
survival after lysophosphatidylcholine challenge ([2]; lysophosphatidylcholine 10 μg/ml, 60 min): gained survival benefit
E2 concentration that suppressed growth ([3]; both, bovine, 24 h): ≥ 100 µM
E2 concentration that significantly inhibited endothelial cell growth ([3]; female, bovine, 24 h): ≥ 100 µM
cell count without subsequent paraquat exposure ([3]; groups pretreated with various doses of E2, comparable among groups, average): 3.1×10^5 per well
CAT activity elevation relative to untreated cells (catalase (CAT); [6]): ~2 fold
CAT activity increase (catalase (CAT); [7]): ~2 fold
GPX activity elevation relative to untreated cells [4, 6]: ~2 fold
GPX activity increase [4, 7]: ~3 fold
